Measurements as given in patent publication US20120029187A1, “HALOALKYLSULFONANILIDE DERIVATIVE” (Nissan Chemical Industries, Ltd., priority 2009, published 2012).

Experiments:
Format in all cases: in vivo
common ragweed [1] = assay: Test Example 4: herbicidal effect in foliage treatment; settings: dose 3.2 g/a, three weeks after application
From the text: (§1) Test on the Herbicidal Effect in Foliage Treatment
(§2) Sterilized diluvial soil was put in plastic boxes with a length of 21 cm, a width of 13 cm and a depth of 7 cm, and seeds of barnyardgrass, large crabgrass, giant foxtail, wild oat, blackgrass, velvetleaf, common ragweed, redroot pigweed, common lambsquater, posumbu knotweed, common chickweed, corn, soybean, rice, wheat and sugar beet were sown in spots and covered with an about 1.5 cm-thick soil layer. The boxes were placed in a greenhouse at 25 to 30° C. to grow the plants. After 14 days, emulsifiable concentrates containing compounds of the present invention formulated in accordance with Formulation Example 2 were uniformly applied to the foliage at predetermined doses through a small sprayer after diluted with water. Three weeks after the application, the herbicidal effects against various plants were determined on the same evaluation scale as in Test Example 1.
(§3) A: barnyardgrass, B: bulrush, C: ducksalad, D: large crabgrass, E: giant foxtail, F: wild oat, G: water foxtail, H: Italian ryegrass, I: velvetleaf, J: common ragweed, K: redroot pigweed, L: common lambsquater, M: posumbu knotweed, N: common chickweed, O: beadstraw, a: transplanted rice, b: corn, c: soybean, d: direct-seeded rice, e: wheat, f: sugar beet.
(§4) The doses (g/a) represents the amounts in g per 1 are (a) applied after adjustment of concentration adjustment.

redroot pigweed [2] = assay: as above; settings: dose 3.2 g/a, three weeks after application
From the text: as §1, §2, §3, §4

posumbu knotweed = assay: as above; settings: dose 3.2 g/a, three weeks after application
From the text: as §1, §2, §3, §4

large crabgrass [3] = assay: as above; settings: dose 3.2 g/a, three weeks after application
From the text: as §1, §2, §3, §4

Italian ryegrass [4] = assay: as above; settings: dose 3.2 g/a, three weeks after application
From the text: as §1, §2, §3, §4

water foxtail [5] = assay: as above; settings: dose 3.2 g/a, three weeks after application
From the text: as §1, §2, §3, §4

velvetleaf [6] = assay: as above; settings: dose 3.2 g/a, three weeks after application
From the text: as §1, §2, §3, §4

barnyardgrass [7] = assay: as above; settings: dose 3.2 g/a, three weeks after application
From the text: as §1, §2, §3, §4

beadstraw = assay: as above; settings: dose 3.2 g/a, three weeks after application
From the text: as §1, §2, §3, §4

giant foxtail [8] = assay: as above; settings: dose 3.2 g/a, three weeks after application
From the text: as §1, §2, §3, §4

common chickweed [9] = assay: as above; settings: dose 3.2 g/a, three weeks after application
From the text: as §1, §2, §3, §4

common lambsquater [10] = assay: as above; settings: dose 3.2 g/a, three weeks after application
From the text: as §1, §2, §3, §4

transplanted rice = assay: Test Example 1: preemergence treatment under submerged conditions, effect on crop; settings: dose 2.52 g/a
From the text: (§5) Test on the Herbicidal Effects in Preemergence Treatment on Weeds Under Submerged Conditions
(§6) Alluvial soil was put in 1/30000-are styrol cups and admixed with water so that it was submerged at a depth of 4 cm. In each cup, seeds of barnyardgrass, bulrush and ducksalad were sown together, and rice seedlings at the 2.5-leaf stage were transplanted. On the same day as the seeding, emulsifiable concentrates containing compounds of the present invention formulated in accordance with Formulation Example 2 were applied to the water surfaces at predetermined doses after diluted with water. The cups were placed in a greenhouse at 25 to 30° C. to grow the plants. Three weeks after the application, the herbicidal effects against various plants were determined on the following evaluation scale.
(§7) 5 mortality of 90% or above (nearly complete death)
(§8) 4 mortality of at least 70% and less than 90%
(§9) 3 mortality of at least 40% and less than 70%
(§10) 2 mortality of at least 20% and less than 40%
(§11) 1 mortality of at least 5% and less than 20%
(§12) 0 mortality of less than 5% (almost ineffective)
as §3, §4

common ragweed [11] = assay: Test Example 3: herbicidal effects in soil treatment; settings: dose 3.2 g/a
From the text: (§13) Test on the Herbicidal Effects in Soil Treatment
as §2, with “chickweed” for “chickweed,”, “Emulsifiable” for “The boxes were placed in a greenhouse at 25 to 30° C. to grow the plants. After 14 days, emulsifiable”, “soil surfaces” for “foliage”, “dilute” for “diluted”
as §3, §4

redroot pigweed [12] = assay: as above; settings: dose 3.2 g/a
From the text: as §13
as §2, with “chickweed” for “chickweed,”, “Emulsifiable” for “The boxes were placed in a greenhouse at 25 to 30° C. to grow the plants. After 14 days, emulsifiable”, “soil surfaces” for “foliage”, “dilute” for “diluted”
as §3, §4

large crabgrass [13] = assay: as above; settings: dose 3.2 g/a
From the text: as §13
as §2, with “chickweed” for “chickweed,”, “Emulsifiable” for “The boxes were placed in a greenhouse at 25 to 30° C. to grow the plants. After 14 days, emulsifiable”, “soil surfaces” for “foliage”, “dilute” for “diluted”
as §3, §4

Italian ryegrass [14] = assay: as above; settings: dose 3.2 g/a
From the text: as §13
as §2, with “chickweed” for “chickweed,”, “Emulsifiable” for “The boxes were placed in a greenhouse at 25 to 30° C. to grow the plants. After 14 days, emulsifiable”, “soil surfaces” for “foliage”, “dilute” for “diluted”
as §3, §4

water foxtail [15] = assay: as above; settings: dose 3.2 g/a
From the text: as §13
as §2, with “chickweed” for “chickweed,”, “Emulsifiable” for “The boxes were placed in a greenhouse at 25 to 30° C. to grow the plants. After 14 days, emulsifiable”, “soil surfaces” for “foliage”, “dilute” for “diluted”
as §3, §4

velvetleaf [16] = assay: as above; settings: dose 3.2 g/a
From the text: as §13
as §2, with “chickweed” for “chickweed,”, “Emulsifiable” for “The boxes were placed in a greenhouse at 25 to 30° C. to grow the plants. After 14 days, emulsifiable”, “soil surfaces” for “foliage”, “dilute” for “diluted”
as §3, §4

barnyardgrass [17] = assay: as above; settings: dose 3.2 g/a
From the text: as §13
as §2, with “chickweed” for “chickweed,”, “Emulsifiable” for “The boxes were placed in a greenhouse at 25 to 30° C. to grow the plants. After 14 days, emulsifiable”, “soil surfaces” for “foliage”, “dilute” for “diluted”
as §3, §4

giant foxtail [18] = assay: as above; settings: dose 3.2 g/a
From the text: as §13
as §2, with “chickweed” for “chickweed,”, “Emulsifiable” for “The boxes were placed in a greenhouse at 25 to 30° C. to grow the plants. After 14 days, emulsifiable”, “soil surfaces” for “foliage”, “dilute” for “diluted”
as §3, §4

common chickweed [19] = assay: as above; settings: dose 3.2 g/a
From the text: as §13
as §2, with “chickweed” for “chickweed,”, “Emulsifiable” for “The boxes were placed in a greenhouse at 25 to 30° C. to grow the plants. After 14 days, emulsifiable”, “soil surfaces” for “foliage”, “dilute” for “diluted”
as §3, §4

common lambsquater [20] = assay: as above; settings: dose 3.2 g/a
From the text: as §13
as §2, with “chickweed” for “chickweed,”, “Emulsifiable” for “The boxes were placed in a greenhouse at 25 to 30° C. to grow the plants. After 14 days, emulsifiable”, “soil surfaces” for “foliage”, “dilute” for “diluted”
as §3, §4

ducksalad [21] = assay: Test Example 1: herbicidal effects in preemergence treatment under submerged conditions; settings: dose 2.52 g/a
From the text: as §5, §6, §7, §8, §9, §10, §11, §12, §3, §4

bulrush [22] = assay: as above; settings: dose 2.52 g/a
From the text: as §5, §6, §7, §8, §9, §10, §11, §12, §3, §4

barnyardgrass [23] = assay: as above; settings: dose 2.52 g/a
From the text: as §5, §6, §7, §8, §9, §10, §11, §12, §3, §4

ducksalad [24] = assay: Test Example 2: herbicidal effects during the vegetation period under submerged conditions; settings: treatment during the vegetation period under submerged conditions; dose 2.52 g/a
Protocol: (§14) Test on the Herbicidal Effects on Weeds During the Vegetation Period Under Submerged Conditions
(§15) Alluvial soil was put in 1/30000-are styrol cups and admixed with water so that it was submerged at a depth of 4 cm. In each cup, seeds of barnyardgrass, bulrush and ducksalad were sown together, and the cups were placed in a greenhouse at 25 to 30° C. to grow the plants. When the barnyardgrass, bulrush and ducksalad reached the 1- or 2-leaf stage, emulsifiable concentrates containing compounds of the present invention formulated in accordance with Formulation Example 2 were applied to the water surfaces at predetermined doses after diluted with water. Three weeks after the application, the herbicidal effects against various plants were determined on the same evaluation scale as in Test Example 1.
as §3, §4

bulrush [25] = assay: as above; settings: treatment during the vegetation period under submerged conditions; dose 2.52 g/a
Protocol: as §14, §15, §3, §4

barnyardgrass [26] = assay: as above; settings: treatment during the vegetation period under submerged conditions; dose 2.52 g/a
Protocol: as §14, §15, §3, §4

CCOC(=O)N(c1ccccc1CN1COC2(CCCC2)CC1=O)S(=O)(=O)C(F)(F)F [II-66]
J: common ragweed, herbicidal effect (common ragweed [1]): 3 (mortality of at least 40% and less than 70%) | K: redroot pigweed, herbicidal effect (redroot pigweed [2]): 0 (mortality of less than 5% (almost ineffective)) | M: posumbu knotweed, herbicidal effect (posumbu knotweed): 4 (mortality of at least 70% and less than 90%) | D: large crabgrass, herbicidal effect (large crabgrass [3]): 3 (mortality of at least 40% and less than 70%) | H: Italian ryegrass, herbicidal effect (Italian ryegrass [4]): 3 (mortality of at least 40% and less than 70%) | G: water foxtail, herbicidal effect (water foxtail [5]): 5 (mortality of 90% or above (nearly complete death)) | I: velvetleaf, herbicidal effect (velvetleaf [6]): 3 (mortality of at least 40% and less than 70%) | A: barnyardgrass, herbicidal effect (barnyardgrass [7]): 5 (mortality of 90% or above (nearly complete death)) | O: beadstraw, herbicidal effect (beadstraw): 0 (mortality of less than 5% (almost ineffective)) | E: giant foxtail, herbicidal effect (giant foxtail [8]): 4 (mortality of at least 70% and less than 90%) | N: common chickweed, herbicidal effect (common chickweed [9]): 4 (mortality of at least 70% and less than 90%) | L: common lambsquater, herbicidal effect (common lambsquater [10]): 3 (mortality of at least 40% and less than 70%) | a: transplanted rice, effect on crop (evaluation scale 0-5) (transplanted rice): 0 (mortality of less than 5% (almost ineffective)) | J: common ragweed, herbicidal effect (evaluation scale 0-5) (common ragweed [11]): 3 (mortality of at least 40% and less than 70%) | K: redroot pigweed, herbicidal effect (evaluation scale 0-5) (redroot pigweed [12]): 2 (mortality of at least 20% and less than 40%) | D: large crabgrass, herbicidal effect (evaluation scale 0-5) (large crabgrass [13]): 5 (mortality of 90% or above (nearly complete death)) | H: Italian ryegrass, herbicidal effect (evaluation scale 0-5) (Italian ryegrass [14]): 5 (mortality of 90% or above (nearly complete death)) | G: water foxtail, herbicidal effect (evaluation scale 0-5) (water foxtail [15]): 5 (mortality of 90% or above (nearly complete death)) | I: velvetleaf, herbicidal effect (evaluation scale 0-5) (velvetleaf [16]): 4 (mortality of at least 70% and less than 90%) | A: barnyardgrass, herbicidal effect (evaluation scale 0-5) (barnyardgrass [17]): 5 (mortality of 90% or above (nearly complete death)) | E: giant foxtail, herbicidal effect (evaluation scale 0-5) (giant foxtail [18]): 5 (mortality of 90% or above (nearly complete death)) | N: common chickweed, herbicidal effect (evaluation scale 0-5) (common chickweed [19]): 5 (mortality of 90% or above (nearly complete death)) | L: common lambsquater, herbicidal effect (evaluation scale 0-5) (common lambsquater [20]): 0 (mortality of less than 5% (almost ineffective)) | C: ducksalad, herbicidal effect (evaluation scale 0-5) (ducksalad [21]): 5 (mortality of 90% or above (nearly complete death)) | B: bulrush, herbicidal effect (evaluation scale 0-5) (bulrush [22]): 5 (mortality of 90% or above (nearly complete death)) | A: barnyardgrass, herbicidal effect (evaluation scale 0-5) (barnyardgrass [23]): 5 (mortality of 90% or above (nearly complete death)) | C: ducksalad, herbicidal effect (evaluation scale 0-5) (ducksalad [24]): 5 (mortality of 90% or above (nearly complete death)) | B: bulrush, herbicidal effect (evaluation scale 0-5) (bulrush [25]): 5 (mortality of 90% or above (nearly complete death)) | A: barnyardgrass, herbicidal effect (evaluation scale 0-5) (barnyardgrass [26]): 5 (mortality of 90% or above (nearly complete death))
